# Experimental data as given in patent US7196074B2, “Methods of making, using and pharmaceutical formulations comprising 7α, 11β-dimethyl-17β-hydroxyestra-4, 14-dien-3-one and 17 esters thereof” (The United States of America as represented by the …, priority 2000, dated 2007).
# Key:
# [1] = test system: ventral prostate weight; experiment: Duration of androgenic activity after subcutaneous injection, ventral prostate weight over weeks in orchidectomized immature rats; assay type: in vivo, Sprague-Dawley rats
# Description: Immature (about 21-day-old) Sprague-Dawley rats were orchidectomized under anesthesia, and randomly assignee to groups of ten animals for each dose level of the active undergoing testing. Each active was administered by subcutaneous injection each day for seven days beginning on the date of the orchidectomy. The animals were sacrificed 24 hours after the last dose, and the ventral prostate and seminal vesicles were excised, cleaned of fat and connective tissue, blotted on moist filter paper and weighed to the nearest 0.1 mg. Regression analysis was performed by conventional methods using a PROPHET data management system. Ventral prostate weight was used as the endpoint because it is the sensitive organ to androgenic stimulation.
# Except for testosterone enanthate, each active was formulated in two different carriers: (1) an aqueous suspension and (2) in sesame oil. Testosterone enanthate was formulated using the sesame oil carrier only, because it exists as a liquid at room temperature and could not therefore be formulated as an aqueous suspension.
# (§1) The carrier used to provide the aqueous suspension was formulated as follows: 1 g benzyl alcohol, 0.5 g sodium carboxylethyl cellulose 50, 0.376 g disodium hydrogen phosphate dihydrate, 1.495 g sodium dihydrogen phosphate dihydrate, with water for injection (WFI) being added to bring volume of the carrier up to 100 ml.
# Each formulation was prepared at a concentration of 0.6 mg/0.2 ml.
# Immature (about 21-day-old) Sprague-Dawley rats were orchidectomized under anesthesia, and randomly assignee to groups of 40 or more. Animals received a single subcutaneous injection of 0.6 mg of each ester in 0.2 ml of an aqueous suspending carrier and/or oily carrier (10% ethanol/90% sesame oil or ethyl oleate) on the date of the orchidectomy. In cases where the ester was not solid at room temperature, 10% ethanol/sesame oil or ethyl oleate was used as the carrier. In this example, the carrier used to provide the aqueous suspension was formulated as follows: 1 g benzyl alcohol, 0.5 g sodium carboxylethyl cellulose 50, 0.376 g disodium hydrogen phosphate dihydrate, 1.495 g sodium dihydrogen phosphate dihydrate, with water for injection (WFI) being added to bring volume of the carrier up to 100 ml.
# Five animals from each group were sacrificed at weekly or biweekly intervals, and the ventral prostate and seminal vesicles were excised, cleaned of fat and connective tissue, blotted on moist filter paper and weighed to the nearest 0.1 mg.
# Ventral prostate weight was used as the endpoint because it is the sensitive organ to androgenic stimulation. Regression analysis was performed by conventional methods using the PROPHET data management system previously identified.
# Immature (about 21-day-old) Sprague-Dawley rats were orchidectomized under anesthesia, and randomly assignee to groups of 40 or more. Animals received a single subcutaneous injection of 0.6 mg of the undecanoate in 0.2 ml of an aqueous suspending carrier and/or oily carrier (10% ethanol/90% sesame oil containing 5 mg/ml chlorobutanol as a preservative, or ethyloleate) on the date of the orchidectomy. The enanthate ester was formulated using the 10% ethanol/sesame oil or ethyloleate carrier as a first standard, with the 10% ethanol/sesame oil carrier used as a second standard.
# as §1, with “In this example, the” for “The”
# Immature (about 21-day-old) Sprague-Dawley rats were orchidectomized under anesthesia, and randomly assignee to groups of 40 or more. […] The enanthate ester was formulated using the 10% ethanol/sesame oil or ethyloleate carrier as a first standard, with the 10% ethanol/sesame oil carrier used as a second standard.
# [2] = test system: ventral prostate weight; experiment: Subcutaneous androgenic potency, ventral prostate weight assay in orchidectomized immature rats (injection daily for seven days); assay type: in vivo, Sprague-Dawley rats; settings: for Androgenic Potency (activity of corresponding alcohol): ventral prostate weight assay following subcutaneous administration, alcohol of G = 1.0 (assigned), value is for the free alcohol of the listed ester
# Description: (§2) Immature (about 21-day-old) Sprague-Dawley rats were orchidectomized under anesthesia, and randomly assignee to groups of ten animals for each dose level of the active undergoing testing. Each active was dissolved in 10% ethanol/sesame oil and administered by gavage (oral) or subcutaneous injection each day for seven days beginning on the date of the orchidectomy. The animals were sacrificed 24 hours after the last dose, and the ventral prostate and seminal vesicles were excised, cleaned of fat and connective tissue, blotted on moist filter paper and weighed to the nearest 0.1 mg. Regression analysis was performed by conventional methods using a PROPHET data management system. Ventral prostate weight was used as the endpoint because it is the sensitive organ to androgenic stimulation.
# as §2, with “by” for “by gavage (oral) or”, “mg. See, e.g., Hershberger, L. et al, Myotrophic Activity of 19-nortestosterone And Other Steroids Determined By Modified Levator And Muscle Method, Proc. Soc. Exptl. Bid. Med. 83 175–180 (1953).” for “mg.”, “system. See, e.g., Bliss, C., The Statistics of Bioassay (Academic Press, New York, 1952); Hollister, C., Nucleic Acids Res. 16 1873–75 (1988).” for “system.”
# Immature (about 22-day-old) Sprague-Dawley male rats were orchidectomized under anesthesia, and randomly assignee to groups of ten animals for each dose level of the active undergoing testing. […] Illumination was controlled for 14 hour periods of light and 10 hours of darkness.
# Each active was administered by subcutaneous injection of 0.6 mg of test material in aqueous suspending vehicle (ASV) and/or an oily vehicle (10% ethanol/sesame oil) on the day of surgery. Testosterone enanthate in sesame oil was used as a standard. The ventral prostate and seminal vesicles were excised, cleaned of fat and connective tissue, blotted on moist filter paper and weighed to the nearest 0.1 mg. Regression analysis was performed by conventional methods using a PROPHET data management system. Ventral prostate weight was used as the endpoint because it is the sensitive organ to androgenic stimulation.
# [3] = molecular target: T1, androgen receptor (Rattus norvegicus, UniProt P15207); experiment: Relative binding affinity to the androgen receptor; settings: from rat prostate; relative to methyltrienolone = 100%; value is for the free alcohol of the listed ester
# T1 sequence (P15207 1-902): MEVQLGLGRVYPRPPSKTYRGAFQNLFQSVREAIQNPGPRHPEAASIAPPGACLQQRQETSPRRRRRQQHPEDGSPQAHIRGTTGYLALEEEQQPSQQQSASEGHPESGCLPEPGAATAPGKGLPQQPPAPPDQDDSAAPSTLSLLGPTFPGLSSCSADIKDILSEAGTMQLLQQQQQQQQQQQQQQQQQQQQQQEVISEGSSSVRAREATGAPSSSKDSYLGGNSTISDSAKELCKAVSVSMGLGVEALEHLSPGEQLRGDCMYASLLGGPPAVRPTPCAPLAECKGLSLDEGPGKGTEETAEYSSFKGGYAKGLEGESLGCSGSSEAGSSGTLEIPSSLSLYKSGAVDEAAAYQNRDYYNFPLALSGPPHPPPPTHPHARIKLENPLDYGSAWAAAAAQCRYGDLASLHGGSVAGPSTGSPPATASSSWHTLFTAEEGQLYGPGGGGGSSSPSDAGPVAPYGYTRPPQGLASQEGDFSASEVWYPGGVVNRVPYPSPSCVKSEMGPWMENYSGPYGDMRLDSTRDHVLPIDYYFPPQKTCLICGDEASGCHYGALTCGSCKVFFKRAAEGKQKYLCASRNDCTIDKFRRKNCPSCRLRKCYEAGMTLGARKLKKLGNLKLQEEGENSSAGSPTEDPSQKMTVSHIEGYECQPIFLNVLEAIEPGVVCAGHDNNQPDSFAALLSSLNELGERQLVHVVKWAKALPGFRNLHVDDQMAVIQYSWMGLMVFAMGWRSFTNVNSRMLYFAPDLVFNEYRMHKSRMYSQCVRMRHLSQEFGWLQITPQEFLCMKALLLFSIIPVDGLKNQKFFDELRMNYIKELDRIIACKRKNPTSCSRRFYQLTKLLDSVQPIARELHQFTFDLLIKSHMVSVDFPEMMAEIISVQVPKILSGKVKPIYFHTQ
# Description: In addition to the foregoing, the androgenic potency and relative binding affinity to the androgen receptor of several free alcohols after subcutaneous administration of their corresponding esters was also determined.
smiles,measurement,setting,value
C[C@@H]1CC2=CC(=O)CC[C@@H]2[C@@H]2[C@@H]1[C@@H]1CC[C@H](O)[C@@]1(C)C[C@@H]2C,melting point,,155 to 157 °C
"CCCCC1CCC(C(=O)O[C@H]2CC[C@H]3[C@H]4[C@H]([C@H](C)C[C@]23C)[C@H]2CCC(=O)C=C2C[C@H]4C)CC1 (stereo partly drawn) [CDB-4386, 7α, 11α-Dimethyl-19-nortestosterone-17β-bucyclate, reference compound]",ventral prostate weight over time after single subcutaneous injection (in words),"[1]; 0.6 mg in 0.2 ml, both oily and aqueous carriers, evaluation discontinued at 8 weeks, FIG. 8",inactive
same,"activity in potency and duration after subcutaneous injection (in words), FIG. 5","[1]; 0.6 mg/0.2 ml, aqueous suspension or sesame oil, ventral prostate weight",relatively low activity
same,activity after subcutaneous administration (in words),"[2]; subcutaneous injection daily for 7 days in 10% ethanol/sesame oil, ventral prostate weight",weak activity
C[C@]1(O)CC[C@H]2[C@@H]3CCC4=CC(=O)CCC4=C3C=C[C@@]21C [methyltrienolone],Androgenic Potency (activity of corresponding alcohol),[2],5.0
same,Relative Binding Affinity (activity of corresponding alcohol),[3],100%
"CCCCC1CCC(C(=O)O[C@H]2CC[C@H]3[C@@H]4CCC5=CC(=O)CC[C@]5(C)[C@H]4CC[C@]23C)CC1 (some centres unmarked) [testosterone bucyclate, Testosterone bucyclate, reference compound]","potency and long-term activity after subcutaneous injection versus 0.6 mg CDB-4386A in aqueous suspension (in words), FIG. 5","[1]; 1.0 mg/0.2 ml, aqueous suspension, ventral prostate weight",significantly less
same,Androgenic Potency (activity of corresponding alcohol),[2],1.0 (assigned)
